According to publication PMC11436758, “Computer-aided drug design to generate a unique antibiotic family” (Nature Communications, 2024):
In brackets after ≈: the same amount, converted by molar mass. Several values for one entry are separate records, joined by “and”; a condition that tells them apart may be missing. Identical values can stand only once. Like-named read-outs stand apart in the source and are kept apart here.

Experiments:
Assay type in all cases: cell-based
[1] = system: E. coli D22 over-expressing AcpS; assay: MIC upon IPTG-induced over-expression of MBP-AcpS (MBP only as control)
Text: Over-expression of AcpS was confirmed by western blot (Supplementary Fig. 6b). This is consistent with inhibition of AcpS being the major mechanism of action for the antimicrobial activity of DNM0547.
Supplementary Figure 6. Increased expression of AcpS increases the MIC of DNM0547. a , the minimum inhibitory concentration (MIC; µg/ml) of the D22 strain of E. coli upon expression of plasmid borne maltose binding protein (MBP) AcpS from an IPTG inducible promoter versus just over-expression of MBP only. The D22 strain of E. coli has a porous outer membrane due to a point mutation in the lpxC gene enabling some compounds to enter the cell that can not permeate wild type E. coli. AcpS is expressed as a fusion with MBP. MICs were determined upon IPTG induction of MBP-AcpS with expression of just MBP used as control. b, western blot against MBP (New England Biolabs E8032S, 1:1000 dilution) to assess expression; IPTG induced expression of MBP and MBP-AcpS at the expected M Wts. c, equal protein was added from each E. coli protein extract used for the western blot. Ponceau stain of the membrane to assess protein loading and transfer.
(also on this page, place not known: DH5a BL 21 D 22 pMAL pMAL pAcpS pAcpS pMAL pMAL pAcpS pAcpS pMAL + pMAL pAcpS + pAcpS - - + - + - + - + - a, AcpS MBP M Compound MBP MBP-AcpS DNM0547 32 256) […]

COS7 cells = assay: cells; details: for IC50: Chlorocebus aethiops, COS-7, COS7 cells, 24 hrs
Protocol: (§1) Stock solutions of the test agents were prepared in DMSO (40 mg/mL) and stored at −20 °C until use. AlamarBlue HS™ cell viability reagent was acquired from Invitrogen (Cat # A50100, Carlsbad, CA). COS7 and HEK293 cells (obtained from ATCC) were cultured and tested at 37 °C in a 5% CO2/100% humidity environment in DMEM media supplemented with 10% fetal bovine serum. Cells were trypsinized, centrifuged, resuspended in cell media, counted on a hemacytometer, and diluted to an appropriate cell density to give the desired number of cells per 300 μl media. Cells were then loaded into 48-well cell culture plates (3548; Corning, Inc.); 300 μl/well at 60,000 cells per well. The cell density was determined in preliminary tests to give linear AlamarBlue HS™ readings over a 3.5 h period for HEK293 cells and 2 h period for COS7 cells after 2 days of growth; 2 wells per plate were loaded with 300 μl/well of cell-free media to provide background readings. Plates were cultured overnight, after which test agent solutions were prepared in media at the highest test concentration (100 ug/mL) and at five serial dilutions, each containing 0.25% DMSO and 0.125% Kolliphor® EL (Cat# 27963, Sigma Aldrich). The compounds concentrations were then loaded in separate columns via 300 μl/well. […] Normalized values representing the amount of AlamarBlue converted to its […] form were calculated for each well using background-corrected absorbances as described by the Alamar-Blue HS protocol information packet available from Invitrogen Technical Support. The fraction of control viability for each agent concentration with each cell line was then determined by the ratio of normalized values for the treated wells to the control wells. […] Values were determined by linear interpolation of fraction of control growth against concentration for the test agent concentrations.

in vitro = assay: in vitro
Protocol: as §1

HEK293 cells = assay: cells; details: Homo sapiens, Hek293 cells, 24 hrs
Protocol: as §1

S. aureus (MRSA) = assay: MIC, clinical and laboratory strains
Outline: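 CLSI broth microdilution in Mueller Hinton II broth, inoculum ~5 × 10^5 CFU/mL per well, incubated at 35 °C for ~18 h. MIC read as lowest drug concentration preventing visible growth.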

[2] = read-out: IC50 (cell viability)
[3] = read-out: Log IC50 (cell viability) (converted)

**Q.** With `CC(C)c1cc(Cl)ccc1-c1cc(-c2nnn[nH]2)c(-c2ccc(Cl)cc2C(C)C)s1` [DNM0547] as the compound, how does the MIC ([1]; E. coli D22, IPTG-induced MBP only (control)) read?
**A.** 32 µg/mL (≈ 70 µM)

**Q.** And the MIC ([1]; E. coli D22, IPTG-induced MBP-AcpS)?
**A.** 256 µg/mL (≈ 560 µM)

**Q.** And the MIC ([1]; Escherichia coli, E. coli D22 with over-expression of AcpS)?
**A.** 256 µg/mL (≈ 560 µM)

**Q.** What about the MIC ([1]; Escherichia coli, Suppl Fig 6a, MBP (control), replicates) of the same compound?
**A.** 32 µg/mL (≈ 70 µM)

**Q.** What about the MIC ([1]; Escherichia coli, Suppl Fig 6a, MBP-AcpS, replicates) of the same compound?
**A.** 256 µg/mL (≈ 560 µM)

**Q.** And the “MIC” value ([1]; Suppl Fig 6a, MBP (control), replicates)?
**A.** 32 µg/mL (≈ 70 µM)

**Q.** And the “MIC” value ([1]; Suppl Fig 6a, MBP-AcpS, replicates)?
**A.** 256 µg/mL and >256 µg/mL

**Q.** And the IC50 (COS7 cells; [2])?
**A.** 21.2 µg/mL (≈ 46.3 µM)

**Q.** And the IC50 (COS7 cells; [3])?
**A.** 21.2 µg/mL (≈ 46.3 µM)

**Q.** And the “Fluorescence (FI)” value (COS7 cells; Suppl Fig 9, COS7 cells, Alamar Blue HS, Conc. 40000 ng/ml)?
**A.** 261 FI

**Q.** And the CC50 at 24 h (in vitro; African green monkey)?
**A.** 21 µg/mL (≈ 45.9 µM)

**Q.** And the CC50 at 24 h (in vitro; human)?
**A.** 41 µg/mL (≈ 89.6 µM)

**Q.** And the IC50 (HEK293 cells; [2])?
**A.** 41.5 µg/mL (≈ 90.8 µM)

**Q.** And the IC50 (HEK293 cells; [3])?
**A.** 41.5 µg/mL (≈ 90.7 µM)

**Q.** What about the MIC (S. aureus (MRSA); S. aureus (MRSA) 2167) of the same compound?
**A.** 1 µg/mL (≈ 2.19 µM)

**Q.** And the MIC (S. aureus (MRSA); S. aureus (MRSA) 2168)?
**A.** 1 µg/mL (≈ 2.19 µM)

**Q.** And the MIC (S. aureus (MRSA); S. aureus (MRSA) 2169)?
**A.** 2 µg/mL (≈ 4.37 µM)

**Q.** And the MIC (S. aureus (MRSA); S. aureus (MRSA) 2170)?
**A.** 1 µg/mL (≈ 2.19 µM)

**Q.** And the MIC (S. aureus (MRSA); S. aureus (MRSA) 2171)?
**A.** 1 µg/mL (≈ 2.19 µM)

**Q.** And the MIC (S. aureus (MRSA); S. aureus (MRSA) 2293)?
**A.** 2 µg/mL (≈ 4.37 µM)

**Q.** What about the MIC (S. aureus (MRSA); S. aureus (MRSA) 2294) of the same compound?
**A.** 1 µg/mL (≈ 2.19 µM)

**Q.** And the MIC (S. aureus (MRSA); S. aureus (MRSA) 2295)?
**A.** 1 µg/mL (≈ 2.19 µM)

**Q.** What about the MIC (S. aureus (MRSA); S. aureus (MRSA) 2296) of the same compound?
**A.** 1 µg/mL (≈ 2.19 µM)

**Q.** And the MIC (S. aureus (MRSA); S. aureus (MRSA) 2297)?
**A.** 2 µg/mL (≈ 4.37 µM)

**Q.** And the MIC (S. aureus (MRSA); S. aureus (MRSA) 3880)?
**A.** 1 µg/mL (≈ 2.19 µM)

**Q.** And the MIC (S. aureus (MRSA); S. aureus (MRSA) 5373)?
**A.** 1 µg/mL (≈ 2.19 µM)

**Q.** What about the MIC (S. aureus (MRSA); S. aureus (MRSA) 5666) of the same compound?
**A.** 1 µg/mL (≈ 2.19 µM)

**Q.** And the MIC (S. aureus (MRSA); S. aureus (MRSA) 5702)?
**A.** 1 µg/mL (≈ 2.19 µM)

**Q.** And the MIC (S. aureus (MRSA); S. aureus (MRSA) 5999)?
**A.** 1 µg/mL (≈ 2.19 µM)

**Q.** And the MIC (S. aureus (MRSA); S. aureus (MRSA) 6165)?
**A.** 1 µg/mL (≈ 2.19 µM)

**Q.** And the MIC (S. aureus (MRSA); S. aureus (MRSA) 6169)?
**A.** 1 µg/mL (≈ 2.19 µM)

**Q.** What about the MIC (S. aureus (MRSA); S. aureus (MRSA) 6174) of the same compound?
**A.** 1 µg/mL (≈ 2.19 µM)

**Q.** What about the MIC (S. aureus (MRSA); S. aureus (MRSA) 6311) of the same compound?
**A.** 1 µg/mL (≈ 2.19 µM)

**Q.** What about the MIC (S. aureus (MRSA); S. aureus (MRSA) 6312) of the same compound?
**A.** 2 µg/mL (≈ 4.37 µM)

**Q.** And the MIC (S. aureus (MRSA); S. aureus (MRSA) 6313)?
**A.** 1 µg/mL (≈ 2.19 µM)

**Q.** And the MIC (S. aureus (MRSA); S. aureus (MRSA) 6315)?
**A.** 1 µg/mL (≈ 2.19 µM)

**Q.** What about the MIC (S. aureus (MRSA); S. aureus (MRSA) 6320) of the same compound?
**A.** 1 µg/mL (≈ 2.19 µM)

**Q.** And the MIC (S. aureus (MRSA); S. aureus (MRSA) 6498)?
**A.** 2 µg/mL (≈ 4.37 µM)

**Q.** And the MIC (S. aureus (MRSA); S. aureus (MRSA) 6501)?
**A.** 2 µg/mL (≈ 4.37 µM)

**Q.** And the MIC (S. aureus (MRSA); S. aureus (MRSA) 6505)?
**A.** 1 µg/mL (≈ 2.19 µM)

**Q.** What about the MIC (S. aureus (MRSA); S. aureus (MRSA) 6506) of the same compound?
**A.** 2 µg/mL (≈ 4.37 µM)

**Q.** And the MIC (S. aureus (MRSA); S. aureus (MRSA) NRS382/2119)?
**A.** 1 µg/mL (≈ 2.19 µM)

**Q.** What about the MIC (S. aureus (MRSA); S. aureus (MRSA) NRS383/2120) of the same compound?
**A.** 1 µg/mL (≈ 2.19 µM)

**Q.** What about the MIC (S. aureus (MRSA); S. aureus (MRSA) NRS384/2011) of the same compound?
**A.** 2 µg/mL (≈ 4.37 µM)
